In patent US20260009799A1, “CA-IX TARGETING FLUORESCENT PROBES” (BRACCO IMAGING S.P.A., priority 2022, published 2026):

What was measured:
[1] = biological target: T1, CA-IX expressing HT-29 cells (Homo sapiens, UniProt Q16790); experiment: Cellular binding assessment by flow cytometry; conditions: HT-29 cells, 1 hour 30 min on ice, flow cytometry; read-out: CA-IX receptor affinity (KD, nM to HT-29 cells)
T1 construct: CA-IX, expressed in its physiological environment at the cell-surface; host or cells: HT-29 human colorectal adenocarcinoma cells
Method: Human colon adenocarcinoma HT-29 cells (ATCC) used for the cellular binding experiments were cultured in McCoy's 5A medium (Sigma-Aldrich), supplemented with 10% HyClone Fetal Clone III (Euroclone), 2 mM L-glutamine (Sigma-Aldrich), 100 IU/mL penicillin, 0.1 mg/mL streptomycin, 0.25 μg/mL amphotericin B (Antibiotic-Antimycotic solution, Life Technologies) and cells were grown at 37° C. in humidified atmosphere enriched with 5% CO2. DPBS without MgCl2 and CaCl2) (Sigma-Aldrich) was used for cell rinsing.
Indeed, by using the anti-human CA-IX antibody MAB2188 (R&D Systems) and the DAKO […], according to the instruction of the datasheet, HT-29 cells were estimated to express about 150,000 CA-IX molecules per cell. Thus, HT-29 cells were used to measure the binding of all compounds to CA-IX, expressed in its physiological environment at the cell-surface. Briefly, HT-29 cells were detached with StemPro® Accutase® Cell Dissociation Reagent (Life Technologies), collected in DPBS and counted. At least 2·10^5 HT-29 cells were placed in 1.5 mL tubes on ice and resuspended in 50-100 μL of cold FACS buffer (eBioscience™ Flow Cytometry Staining Buffer, Invitrogen) containing scalar concentrations of compounds (HF-1, reference 2, and compound 1: range 0-20 μM; reference 3: range 0-24 μM; compound 2: range 0-10 μM). After incubation (1 hour and 30 min on ice in the dark), cells were rinsed 3 times in 300 μL of cold FACS buffer by centrifugation (5 min, 4° C., 350 RCF), discarding the supernatant. Cell pellets were then resuspended in 200 μL of cold FACS buffer (or in an adequate volume in order to obtain no more than 1000 recorded events per μL during FACS analysis) and analyzed with the flow cytometer Accuri™ C6 (BD Biosciences). The mean cell-associated fluorescence was plotted against concentration and the dissociation constant at equilibrium (KD) was inferred by mathematical fitting with GraphPad Prism v.9 software, according to the following equation: […]
where Bmax is the maximum specific binding in the same units as Y; KD is the equilibrium dissociation constant, in the same units as X; NS is the slope of nonspecific binding in Y units divided by X units; and background is the amount of nonspecific binding with no added Compound.
All compounds were analyzed in at least three independent experiments.

[2] = biological target: T2, human serum albumin (HSA) (Homo sapiens, UniProt P02768); experiment: Binding to albumin (ultrafiltration, absorbance of filtrates); format: in vitro ADME; conditions: 4.76 μM probe in PBS, 10 KDa cut off ultrafiltration, 25° C.; read-out: HSA affinity (KA, M^−1) (converted)
T2 construct: purchased Sigma-Aldrich A9511
T2 sequence (P02768 25-609): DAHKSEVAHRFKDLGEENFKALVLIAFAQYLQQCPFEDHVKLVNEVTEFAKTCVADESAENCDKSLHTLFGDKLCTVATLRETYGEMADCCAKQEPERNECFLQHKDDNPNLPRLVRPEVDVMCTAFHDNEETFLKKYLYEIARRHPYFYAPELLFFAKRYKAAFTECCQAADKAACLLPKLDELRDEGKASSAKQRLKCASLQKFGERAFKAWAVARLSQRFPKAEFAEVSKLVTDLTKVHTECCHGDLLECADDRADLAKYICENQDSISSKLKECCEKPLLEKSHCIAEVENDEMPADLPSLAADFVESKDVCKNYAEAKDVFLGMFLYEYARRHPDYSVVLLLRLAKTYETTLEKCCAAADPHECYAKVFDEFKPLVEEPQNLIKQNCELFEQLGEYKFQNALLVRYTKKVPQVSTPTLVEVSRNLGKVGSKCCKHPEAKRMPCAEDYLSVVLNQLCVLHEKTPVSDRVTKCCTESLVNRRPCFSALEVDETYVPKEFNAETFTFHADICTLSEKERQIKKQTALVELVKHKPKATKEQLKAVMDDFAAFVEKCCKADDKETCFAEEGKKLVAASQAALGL
Method: The affinity of the probes for human serum albumin (HSA) was determined to assess the influence of structural features on their albumin binding properties. Briefly, HSA (A9511, Sigma-Aldrich) was prepared in a […] stock solution in PBS and used to obtain a series of dilutions in PBS (0, 9.52·10^−7, 4.76·10^−6, 9.52·10^−6, 1.90·10^−5, 3.81·10^−5, 5.71·10^−5, 9.52·10^−5, 1.43·10^−4, 1.90·10^−4, 2.86·10^−4, 3.81·10^−4 M), in presence of 4.76 μM of the CA-IX-targeting probe (prepared from a 50 μM stock solution in PBS), in a total volume of 0.525 mL. The samples were centrifuged (10000 g for 30 min at 25° C.) in a Microcon device (10 KDa MW cut off, Amicon Ultra-0.5 Centrifugal Filter Unit with Ultracel-10 membrane) and the absorbance measurements of the filtrates were obtained with the spectrophotometer at the maximum absorbance wavelength of the fluorophore.
Data analysis was performed by fitting the raw data, using Microsoft Excel Solver, with the equation:
where ΔA/b=Absorbance measured (b=1 cm), KRL=KA calculated by fitting, Δε·Rt are calculated by fitting, and [L]=HSA concentration. ΔA/b values were experimentally obtained by subtracting the absorbance of “0 HSA sample” to the absorbance of each other sample.

[3] = test system: hypoxic HT-29 colorectal tumor, subcutaneously induced; experiment: In vivo tumor optical imaging (IVIS Spectrum), tumor-to-background ratio; design: species or system mice; conditions: 24 hours after intravenous administration, 1 nmol/mouse, tumor vs hind limb muscle
Method: HT-29 cells were collected and washed once with serum-free medium. Five million HT-29 cells were suspended in 0.1 mL serum-free medium and injected subcutaneously in the right flank of 5 weeks old mice. Tumor development was followed by caliper measurement twice a week, from 7 days after inoculation. Tumor volume was calculated according to the formula: (L*W2)/2, where L and W are the maximum length and width of the tumor.
Optical Imaging experiments on HT-29 tumor bearing animals were performed after administration of Reference 1, 2 and 3, and compounds 1 and 2, all at a dose of 1 nmol/mouse in an administration volume of 0.1 mL (corresponding to about 5 mL/kg, considering a 20 g-mouse) at an injection rate of about 1 mL/min, by the IVIS Spectrum system when the tumor reached at least 200 mm^3 volume. For each group, in vivo OI experiments were performed at 0.5, 1, 2, 3, 4, 6 and 24 hours after intravenous administration of the fluorescent compounds. During imaging experiments animals were maintained under gaseous anesthesia. Regions of interest (ROIs) were drawn on the tumor and on a reference background healthy region (hind limb muscle) of the mouse for each fluorescence image at every time point to evaluate signal intensity in the tissues (expressed as Average Radiant Efficiency). The ratio between the fluorescence signal in the tumor and in the background healthy tissue (tumor-to-background ratio, TBR) was then calculated to assess the contrast.
All the compounds of the invention and the References were tested at a dose of 1 nmol/mouse.

[4] = test system: HT-29 excised tumors and tissues; experiment: Ex vivo biodistribution in excised tumors and organs; design: species or system mice; conditions: 1 nmol; for Organ-to-muscle ratio, intestine (mean ± SD) / Organ-to-muscle ratio, kidney (mean ± SD) / Organ-to-muscle ratio, liver (mean ± SD) / Organ-to-muscle ratio, skin (mean ± SD) / Organ-to-muscle ratio, spleen (mean ± SD) / Organ-to-muscle ratio, stomach (mean ± SD): ex vivo, 24 hours after administration; for ex vivo TBR (mean ± SD), HT-29 tumor: samples collected 24 hours after administration, tumor vs hind limb muscle
Method: The ex vivo biodistribution of the representative compounds 1 and 2 and of the reference compounds (at 1 nmol/mouse) was evaluated in HT-29 excised tumors and tissues at the end of the in vivo OI sessions 24 hours post intravenous administration. At the end of the in vivo experiment, animals were euthanized by overdose of gaseous anesthesia followed by cervical dislocation. Tumor tissue, muscle, and other organs of interest were removed for ex vivo fluorescent signal measurements. The fluorescence signal intensity was measured by the IVIS Spectrum system. Regions of interest (ROIs) were drawn around each organ and tumor using the Living Image Software (PerkinElmer) and evaluating signal intensity in the tissues (expressed as Average Radiant Efficiency). The ratio between the fluorescence signal in the organs and tumor was then calculated to assess the contrast to hind limb muscle (representing the background).

[5] = biological target: recombinant bovine CA-II enzyme (bCAII) (Bos taurus, UniProt P00921); experiment: Fluorescence-based dansylamide (DNSA) displacement assay on carbonic anhydrase catalytic site
Chain of recombinant bovine CA-II enzyme (bCAII) (P00921 whole entry): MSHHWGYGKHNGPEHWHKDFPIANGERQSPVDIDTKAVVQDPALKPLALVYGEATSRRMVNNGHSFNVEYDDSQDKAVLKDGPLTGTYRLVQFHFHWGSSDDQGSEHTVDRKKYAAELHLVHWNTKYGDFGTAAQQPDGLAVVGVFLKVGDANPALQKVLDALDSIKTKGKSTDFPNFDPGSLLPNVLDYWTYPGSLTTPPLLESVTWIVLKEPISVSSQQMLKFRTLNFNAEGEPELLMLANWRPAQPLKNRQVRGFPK

[6] = after injection into the patient; cited from earlier work
[7] = Optical characterization (excitation/emission maxima, molar extinction coefficient); format: physicochemical
Method: A dual-beam UV-VIS spectrophotometer (Lambda 40, Perkin Elmer) was used to determine the absorbance (Abs) of the compounds of the invention. Emission/excitation (Em/Ex) spectra were carried out on a spectrofluorometer (FluoroLog-3 1IHR-320, Horiba Jobin Yvon) equipped with an F-3018 integrating sphere accessory. The measurements were performed using an excitation wavelength at maximum absorbance of different dyes, and the sample was excited with a 450 W Xenon light Source. Detection was performed by photomultiplier tubes (PMT-NIR) cooled detector or by TBX-04 detector. Dye solutions were carefully prepared to have an absorbance lower than 0.1 (optical densities) to minimize re-absorption phenomena.
The compounds of the invention were characterized in terms of their optical properties in vitro in aqueous medium (i.e., water/PBS pH 7.4) and in a clinical chemistry control serum (Seronorm, Sero SA), mimicking the chemical composition and optical properties of human serum. All solutions were freshly prepared. In particular, the compounds of the invention are characterized by absorption maxima comprised in the range from about 750 nm to 780 nm.
The excitation and emission maxima in PBS and Seronorm and the molar extinction coefficient (ε) in water of representative compounds of formula (I) are shown in Table I in comparison with the known CA-IX targeting fluorescent probe named Hypoxyfluor-1 (HF-1, for instance disclosed in Bioconjugate Chem 2018, 29, 3320-3331). […] Moreover, the extinction coefficients were higher than 200,000 mM^−1 cm^−1 for all compounds.

[8] = as above; format: physicochemical; conditions: in water

Row | Kd [1] | Kd [2] | Organ-to-muscle ratio, intestine (mean ± SD) [4] | Organ-to-muscle ratio, kidney (mean ± SD) [4] | Organ-to-muscle ratio, liver (mean ± SD) [4] | Organ-to-muscle ratio, skin (mean ± SD) [4] | Organ-to-muscle ratio, spleen (mean ± SD) [4] | Organ-to-muscle ratio, stomach (mean ± SD) [4] | Kd [5] | Max Em (nm, PBS pH 7.4) ([7]; emission maximum, PBS pH 7.4) | Max Em (nm, Seronorm) ([7]; emission maximum, Seronorm control serum) | Max Ex (nm, PBS pH 7.4) ([7]; excitation maximum, PBS pH 7.4) | Max Ex (nm, Seronorm) ([7]; excitation maximum, Seronorm control serum) | molar extinction coefficient (ε) [8] | Molecule | in vivo TBR (mean ± SD) [3] | ex vivo TBR (mean ± SD), HT-29 tumor [4] | time after injection to reach tumor/blood ratios suitable for imaging [6]
1 | 251 ± 44 nM | 24000 nM | 2.7 ± 0.9 | 15.8 ± 3.4 | 3.6 ± 1.0 | 2.0 ± 0.5 | 1.2 ± 0.3 | 6.7 ± 1.4 | 30.2 ± 1 nM |  |  |  |  |  | CC(=O)NC(CCCCn1cc(CCCC(=O)Nc2nnc(S(N)(=O)=O)s2)nn1)C(=O)NCCOCCOCCNC(=O)CCCCCN1/C(=C/C=C/C=C/C=C/C2=[N+](CCC(C)S(=O)(=O)[O-])c3ccc(C(=O)NC[C@H](O)[C@@H](O)[C@H](O)[C@H](O)CO)cc3C2(C)C)C(C)(C)c2cc(C(=O)NC[C@H](O)[C@@H](O)[C@H](O)[C@H](O)CO)ccc21 (stereo partly shown) [Reference 3] | 4.7 ± 0.6 | 14.7 ± 2.3 | 
2 |  |  |  |  |  |  |  |  |  |  |  |  |  |  | ^124I-cG250: chimeric version of monoclonal antibody G250 labeled with radionuclide 124I |  |  | 2 to 7 days
3 |  | 6400 nM | 2.2 ± 1.3 | 2.4 ± 0.3 | 5.7 ± 0.2 | 1.4 ± 0.0 | 1.4 ± 0.3 | 4.0 ± 1.7 |  | 798 nm | 808 nm | 772 nm | 792 nm | 255000 M⁻¹ cm⁻¹ | CC1(C)C(/C=C/C2=C(Oc3ccc(CCC(=O)NCCCCCCCC(=O)Nc4nnc(S(N)(=O)=O)s4)cc3)C(=C/C=C3/N(CCCCS(=O)(=O)O)c4ccc(S(=O)(=O)O)cc4C3(C)C)/CCC2)=[N+](CCCCS(=O)(=O)[O-])c2ccc(S(=O)(=O)O)cc21 [Reference 1] | 1.8 ± 0.3 | 3.1 ± 0.3 | 
4 | 349 ± 49 nM | 69900 nM | 3.0 ± 0.3 | 19.7 ± 2.2 | 6.2 ± 1.3 | 1.7 ± 0.4 | 1.7 ± 0.4 | 6.1 ± 0.7 | 55.8 ± 1.1 nM |  |  |  |  |  | CC(=O)NC(CCCCn1cc(CCCC(=O)Nc2nnc(S(N)(=O)=O)s2)nn1)C(=O)NCCOCCOCCNC(=O)CCCCCN1/C(=C/C=C2\CCCC(/C=C/C3=[N+](CCCCS(=O)(=O)[O-])c4ccc(C(=O)NC[C@H](O)[C@@H](O)[C@H](O)[C@H](O)CO)cc4C3(C)C)=C2Oc2ccc(S(=O)(=O)O)cc2)C(C)(C)c2cc(C(=O)NC[C@H](O)[C@@H](O)[C@H](O)[C@H](O)CO)ccc21 (stereo partly shown) [Reference 2] | 3.4 ± 0.6 | 9.2 ± 3.3 | 
